Results taken from EP4806898A1, “HETEROARYL DERIVATIVE COMPOUND AND USE THEREOF” (Voronoi Inc., priority 2023, dated 2025).

How the values were obtained:
UWB1.289 cells = assay: Cell proliferation inhibitory activity in BRCA1/2-mutant or HRD-positive cells (Cell Titer-Glo); format: cell-based; details: UWB1289; UWB1.289 cells, 144 hours after compound treatment, Cell Titer-Glo, 1.5 nM to 10 µM; read-out: GI50 UWB1.289 BRCA1 mut
Summary of the method: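 GI50 from CellTiter-Glo luminescence after 144 h compound exposure at 37 °C. Cells seeded at 1,000 per well in MEBM/RPMI1640 mix 16–24 h beforehand; […] from 10 µM down to 1.5 nM final (3-fold steps).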

recombinant USP1 protein = biological target: T1, recombinant USP1 protein (Homo sapiens, UniProt O94782, DEL125-138/DEL229-408/DEL608-737); assay: Binding affinity to recombinant USP1 protein by differential scanning fluorimetry; details: compound 100 µM; 0.03 mg/mL USP1 (Δ1-66, Δ125-138, Δ229-408, Δ608-737); Tm with compound minus Tm with DMSO; read-out: ΔTm (°C)
T1 sequence (O94782 with tags, fused parts or gaps DEL125-138/DEL229-408/DEL608-737): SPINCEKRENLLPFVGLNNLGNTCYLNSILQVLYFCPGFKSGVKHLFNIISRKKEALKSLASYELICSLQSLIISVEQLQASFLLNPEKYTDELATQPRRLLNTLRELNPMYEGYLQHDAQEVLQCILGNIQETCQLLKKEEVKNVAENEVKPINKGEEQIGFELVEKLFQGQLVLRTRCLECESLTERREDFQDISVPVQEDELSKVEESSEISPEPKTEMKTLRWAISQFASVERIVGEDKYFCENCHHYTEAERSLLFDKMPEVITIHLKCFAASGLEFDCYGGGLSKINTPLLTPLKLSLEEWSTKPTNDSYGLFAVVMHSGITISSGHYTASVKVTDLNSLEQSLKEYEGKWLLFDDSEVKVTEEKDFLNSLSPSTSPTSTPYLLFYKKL
Summary of the method: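 Thermal shift readout: ΔTm is the compound-well melting temperature less the DMSO-well value, measured by real-time PCR. Compounds tested at 100 µM final against 0.03 mg/mL truncated USP1 (Δ1-66, Δ125-138, Δ229-408, Δ608-737) in pH 8.0 Tris buffer containing 150 mM NaCl, 2% glycerol, 1 mM DTT.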

Row | Compound | ΔTm at 100 µM (recombinant USP1 protein) [°C] | GI50 (UWB1.289 cells) [nM]
1 | CNC(=O)c1cc2cnc(-c3c(OC)ncnc3C3CC3)nc2n1Cc1ccc(-n2nc(C(F)(F)F)cc2-c2ccco2)cc1 [Example 198, 2-(4-cyclopropyl-6-methoxypyrimidin-5-yl)-7-(4-(5-(furan-2-yl)-3-(trifluoromethyl)-1H-pyrazol-1-yl)benzyl)-N-methyl-7H-pyrrolo[2,3-d]pyrimidine-6-carboxamide] | > 5 | 100 to 500
2 | CNC(=O)c1cc2cnc(-c3c(OC)ncnc3C3CC3)nc2n1Cc1ccc(-c2nc(C(F)(F)F)c3n2CCCC3)cc1 [Example 200, 2-(4-cyclopropyl-6-methoxypyrimidin-5-yl)-N-methyl-7-(4-(1-(trifluoromethyl) -5,6,7,8-tetrahydroimidazo[1,5-a]pyridin-3-yl)benzyl)-7H-pyrrolo[2,3-d]pyrimidine-6-carboxamide] | > 5 | < 100
3 | CNC(=O)c1cc2cnc(-c3c(OC)ncnc3C3CC3)nc2n1Cc1ccc(-c2nc(C(F)(F)F)c3ccccn23)cc1 [Example 208, 2-(4-cyclopropyl-6-methoxypyrimidin-5-yl)-N-methyl-7-(4-(1-(trifluoromethyl)imidazol[1,5-a]pyridin-3-yl)benzyl)-7H-pyrrolo[2,3-d]pyrimidine-6-carboxamide] | > 5 | < 100
4 | CNC(=O)c1cc2cnc(-c3c(OC)ncnc3C3CC3)nc2n1Cc1ccc(-c2cc(C)ccn2)cc1 [Example 209, 2-(4-cyclopropyl-6-methoxypyrimidin-5-yl)-N-methyl-7-(4-(4-methylpyridin-2-yl)benzyl)-7H-pyrrolo[2,3-d]pyrimidine-6-carboxamide] | > 5 | < 100
5 | COc1ncnc(C2CC2)c1-c1ncc2cc(C(=O)N[C@H]3CN(C4COC4)C[C@H]3F)n(Cc3ccc(-c4nc(C(F)(F)F)cn4C)cc3)c2n1 [Example 212, 2-(4-cyclopropyl-6-methoxypyrimidin-5-yl)-N-((3S,4R)-4-fluoro-1-(oxetan-3-yl)pyrrolidin-3-yl)-7-(4-(1-methyl-4-(trifluoromethyl)-1H-imidazol-2-yl)benzyl)-7H-pyrrolo [2,3-d]pyrimidine-6-carboxamide] | > 5 | < 100
6 | CNC(=O)c1cc2cnc(-c3c(OC)ncnc3C3CC3)nc2n1Cc1ccc(-c2nc(C(F)(F)F)c(OC)n2C)cc1 [Example 214, 2-(4-cyclopropyl-6-methoxypyrimidin-5-yl)-7-(4-(5-methoxy-1-methyl-4-(trifluoromethyl)-1H-imidazol-2-yl)benzyl)-N-methyl-7H-pyrrolo[2,3-d]pyrimidine-6-carboxamide] | > 5 | < 100
7 | COc1ncnc(C2CC2)c1-c1ncc2cc(C(=O)N[C@H]3CN(C4CC4)C[C@H]3F)n(Cc3ccc(-c4nc(C(F)(F)F)cn4C)cc3)c2n1 [Example 215, N-((3S,4R)-1-cyclopropyl-4-fluoropyrrolidin-3-yl)-2-(4-cyclopropyl-6-methoxypyrimidin-5-yl)-7-(4-(1-methyl-4-(trifluoromethyl)-1H-imidazol-2-yl)benzyl)-7H-pyrrolo[2,3-d]pyrimidine-6-carboxamide] | > 5 | < 100
8 | COc1ncnc(C2CC2)c1-c1ncc2cc(C(=O)N[C@@H]3CCN(C4COC4)C[C@@H]3F)n(Cc3ccc(-c4nc(C(F)(F)F)cn4C)cc3)c2n1 [Example 216, 2-(4-cyclopropyl-6-methoxypyrimidin-5-yl)-N-((3S,4R)-3-fluoro-1-(oxetan-3-yl)piperidin-4-yl)-7-(4-(1-methyl-4-(trifluoromethyl)-1H-imidazol-2-yl)benzyl) -7H-pyrrolo[2,3-d]pyrimidine-6-carboxamide] | > 5 | 100 to 500

Further lines, with some results ahead:

Row | ΔTm at 100 µM (recombinant USP1 protein) [°C] | Compound | GI50 (UWB1.289 cells) [nM]
9 | > 5 | COc1ncnc(C2CC2)c1-c1ncc2cc(C(=O)NC(C)(C)CO)n(Cc3ccc(-c4nc(C(F)(F)F)cn4C)cc3)c2n1 [Example 197, 2-(4-cyclopropyl-6-methoxypyrimidin-5-yl)-N-(1-hydroxy-2-methylpropan-2-yl)-7-(4-(1-methyl-4-(trifluoromethyl)-1H-imidazol-2-yl)benzyl)-7H-pyrrolo[2,3-d]pyrimidine-6-carboxamide] | < 100
10 | > 5 | COc1ncnc(C2CC2)c1-c1ncc2cc(C(=O)N[C@@H]3CCN(C)[C@H](C)C3)n(Cc3ccc(-c4nc(C(F)(F)F)cn4C)cc3)c2n1 [Example 199, 2-(4-cyclopropyl-6-methoxypyrimidin-5-yl)-N-((2R,4R)-1,2-dimethylpiperidin-4-yl)-7-(4-(1-methyl-4-(trifluoromethyl)-1H-imidazol-2-yl)benzyl)-7H-pyrrolo[2,3-d]pyrimidine-6-carboxamide] | < 100
11 | > 5 | COc1ncnc(C2CC2)c1-c1ncc2cc(C(=O)N[C@H]3CCN(C)[C@H](C)C3)n(Cc3ccc(-c4nc(C(F)(F)F)cn4C)cc3)c2n1 [Example 201, 2-(4-cyclopropyl-6-methoxypyrimidin-5-yl)-N-((2R,4S)-1,2-dimethylpiperidin-4-yl)-7-(4-(1-methyl-4-(trifluoromethyl)-1H-imidazol-2-yl)benzyl)-7H-pyrrolo[2,3-d]pyrimidine-6-carboxamide] | < 100
12 | > 5 | COc1ncnc(C2CC2)c1-c1ncc2cc(C(=O)N[C@H]3CCN(C)CC3(F)F)n(Cc3ccc(-c4nc(C(F)(F)F)cn4C)cc3)c2n1 [Example 202, (S)-2-(4-cyclopropyl-6-methoxypyrimidin-5-yl)-N-(3,3-difluoro-1-methylpiperidin-4-yl)-7-(4-(1-methyl-4-(trifluoromethyl)-1H-imidazol-2-yl)benzyl)-7H-pyrrolo[2,3-d]pyrimidine-6-carboxamide] | < 100
13 | > 5 | CNC1CN(C(=O)c2cc3cnc(-c4c(OC)ncnc4C4CC4)nc3n2Cc2ccc(-c3nc(C(F)(F)F)cn3C)cc2)C1 [Example 203, (2-(4-cyclopropyl-6-methoxypyrimid in-5-yl)-7-(4-(1-methyl-4-(trifluoromethyl)-1H-imidazol-2-yl)benzyl)-7H-pyrrolo[2,3-d]pyrimidin-6-yl) (3-(methylamino)azetidin-1-yl)methanone] | < 100
14 | > 5 | COc1ncnc(C2CC2)c1-c1ncc2cc(C(=O)N(C)C)n(Cc3ccc(-c4nc(C(F)(F)F)cn4C)cc3)c2n1 [Example 204, 2-(4-cyclopropyl-6-methoxypyrimidin-5-yl)-N,N-dimethyl-7-(4-(1-methyl-4-(trifluoromethyl)-1H-imidazol-2-yl)benzyl)-7H-pyrrolo[2,3-d]pyrimidine-6-carboxamide] | < 100
15 | > 5 | COc1ncnc(C2CC2)c1-c1ncc2cc(C(=O)NCC(C)(C)O)n(Cc3ccc(-c4nc(C(F)(F)F)cn4C)cc3)c2n1 [Example 205, 2-(4-cyclopropyl-6-methoxypyrimidin-5-yl)-N-(2-hydroxy-2-methylpropyl)-7-(4-(1-methyl-4-(trifluoromethyl)-1H-imidazol-2-yl)benzyl)-7H-pyrrolo[2,3-d]pyrimidine-6-carboxamide] | < 100
16 | > 5 | COc1ncnc(C2CC2)c1-c1ncc2cc(C(=O)N[C@@H]3CCN(C)CC3(F)F)n(Cc3ccc(-c4nc(C(F)(F)F)cn4C)cc3)c2n1 [Example 207, (R) -2-(4-cyclopropyl-6-methoxypyrimidin-5-yl)-N-(3,3-difluoro-1-methylpiperidin-4-yl)-7-(4-(1-methyl-4-(trifluoromethyl)-1H-imidazol-2-yl)benzyl)-7H-pyrrolo[2,3-d]pyrimidine-6-carboxamide] | < 100
17 | > 5 | COc1ncnc(C2CC2)c1-c1ncc2cc(C(=O)N(C)CSC)n(Cc3ccc(-c4nc(C(F)(F)F)cn4C)cc3)c2n1 [Example 210, 2-(4-cyclopropyl-6-methoxypyrimidin-5-yl)-N-methyl-7-(4-(1-methyl-4-(trifluoromethyl)-1H-imidazol-2-yl)benzyl)-N-((methylthio)methyl)-7H-pyrrolo[2,3-d]pyrimidine-6-carboxamide] | < 100
18 | > 5 | COc1ncnc(C2CC2)c1-c1ncc2cc(C(=O)N[C@H]3CN(C(C)C)C[C@H]3F)n(Cc3ccc(-c4nc(C(F)(F)F)cn4C)cc3)c2n1 [Example 211, 2-(4-cyclopropyl-6-methoxypyrimidin-5-yl)-N-((3S,4R)-4-fluoro-1-isopropylpyrrolidin-3-yl)-7-(4-(1-methyl-4-(trifluoromethyl)-1H-imidazol-2-yl)benzyl)-7H-pyrrolo[2,3-d]pyrimidine-6-carboxamide] | < 100
19 | > 5 | COc1ncnc(C2CC2)c1-c1ncc2cc(C(=O)N[C@@H]3CN(C)C[C@@H]3F)n(Cc3ccc(-c4nc(C(F)(F)F)cn4C)cc3)c2n1 [Example 217, 2-(4-cyclopropyl-6-methoxypyrimidin-5-yl)-N-((3R,4S)-4-fluoro-1-methylpyrrolidin-3-yl)-7-(4-(1-methyl-4-(trifluoromethyl)-1H-imidazol-2-yl)benzyl) -7H-pyrrolo[2,3-d]pyrimidine-6-carboxamide] | < 100
